Where a SMILES comes first, the peptide text is derived from it. [ ]: non-standard residue; d: D form. The star is where a group is joined. NH(TEMPO-4-yl) = CC1(C)CC(N*)CC(C)(C)N1[O]; Orn = NCCC[C@H](N)C(=O)O; Cbz = O=C(OCc1ccccc1)*; Boc = CC(C)(C)OC(=O)*; X1 = CC1CCN=C(N*)S1
How the values were obtained:
[1] = system: mitochondria of 32D c13 hemopoietic cells; assay: Mass spectrometry of conjugates in isolated mitochondria; assay type: cell-based, mouse; settings: 2 h, 100 μM; for Fmole/10 μM mitochondrial protein: mouse; for permeation of the mitochondrial membrane (mass spectrometry): 37° C.
Experimental: An unconjugated and conjugated NOS antagonist, (AMT, 100 μM) and an unconjugated and conjugated nitroxide derivative (4-amino-TEMPO, 100 μM) were incubated for two hours at 37° C. with 32D c13 hemopoietic cells.
Following incubation, the cells were lysed and the mitochondria isolated for a mass spectrometry analysis where compounds isolated from mitochondria were identified as Na+ adducts. […] Thus, the targeting peptides successfully direct a NOS antagonist and a nitroxide to the mitochondria.
Quantitative mass spectrometry studies were used to compare the effectiveness of several AMT peptide conjugates in permeating the mitochondrial membrane, specifically XJB-5-234, XJB-5-133, XJB-5-241, and XJB-5-127. The Fmole/10 μM mitochondrial protein ratio provides a relative quantification of conjugate concentration at the target site.

mouse embryonic cells [2] = assay: ActD-induced apoptosis in MECs (PS externalization, caspase-3, DNA fragmentation); assay type: cell-based; design: protection against ActD-induced apoptosis: dose or concentration left out as unconfirmed; settings: for DNA fragmentation / caspase-3 activation / number of annexin V-positive cells (PS externalization): 10 μM, ActD 100 ng/mL; for effect at concentrations in excess of 10 μM: PS externalization
Text: Cells that annexin V-positive and PI-negative were considered apoptotic.

mouse embryonic cells [3] = assay: Intracellular superoxide generation (DHE flow cytometry) in ActD-treated MECs; assay type: cell-based; settings: 10 μM pretreatment, ActD 100 ng/mL
Experimental: Determination of intracellular superoxide radicals Oxidation-dependent fluorogenic dye, dihydroethidium (“DHE”, Molecular Probes) was used to evaluate intracellular production of superoxide radicals. DHE is cell permeable and, in the presence of superoxide, is oxidized to fluorescent ethidium which intercalates into DNA. The fluorescence of ethidium was measured using a FACscan (Becton-Dickinson, Rutherford, N.J.) flow cytometer, equipped with a 488-nm argon ion laser and supplied with the Cell Quest software. Mean fluorescence intensity from 10,000 cells were acquired using a 585-nm bandpass filter (FL-2 channel).

mouse embryonic cells [4] = assay: EPR-based analysis of integration and reduction of nitroxide Gramicidin S-peptidyl conjugates in MECs; assay type: cell-based; settings: 10 μM, MECs and mitochondria isolated from them
Experimental: Electron paramagnetic resonance (“EPR”) spectroscopy was used to monitor the cellular delivery of compounds 5a and 5b shown in FIG. 3 in mouse embryonic cells (“MEC”).
The following conditions were used during the EPR-based analysis of the integration and reduction of nitroxide Gramicidin S-peptidyl conjugates in MECs. The MECs at a concentration of 10 million MECs per mL were incubated with 10 μM of 4-AT and compound 5a, respectively. Recovered nitroxide radicals in whole cells, mitochondria, and cytosol fractions were resuspended in phosphate buffer saline (“PBS”) in the presence and absence, respectively, of 2 μM K3Fe(CN)6.

[5] = comparison drugs; cited from earlier work
[6] = system: irradiated uroepithelial cells; assay: NO and peroxynitrite production in irradiated uroepithelial cells (microsensor); assay type: cell-based; settings: AMT 10 μM, 4-amino-TEMPO 100 μM; 24 h after irradiation
Experimental: Further physiological studies were conducted to determine the effects of peptide-targeted AMT and 4-amino-TEMPO on NO and peroxynitrite production in irradiated uroepithelial cells. The cells were cultured in an 8-well slide chamber for 3 days and then microsensor measurements were taken 24 hours after irradiation.
In cells treated with high-dose conjugated 4-amin-TEMPO (100 μM), peroxynitrite production was decreased by approximately 4-fold.

[7] = system: 32D cl 3 murine hematopoietic cells; assay: Gamma-irradiation dose survival curves of 32D cl 3 cells (XJB-5-125, Tempol); assay type: cell-based, mouse
Text: FIG. 16 illustrates the effect of GS conjugated nitroxide, XJB-5-125, on gamma-irradiation dose survival curves of 32D cl 3 murine hematopoietic cells.

C/C(=C\[C@H](Cc1ccccc1)C(=O)N1CCC[C@H]1C(=O)N[C@H](C(=O)N[C@@H](CCCNC(=O)OCc1ccccc1)C(=O)NC1=NCCC(C)S1)C(C)C)[C@H](CC(C)C)NC(=O)OC(C)(C)C (stereo partly drawn) [XJB-5-241, Boc-Leu-ψ[(E)-C(CH3)═CH]^DPhe-Pro-Val-Orn(Cbz)-AMT]
Fmole/10 μM mitochondrial protein [1]: 103.3 Fmole/10 μM mitochondrial protein

CC(C)C[C@@H](/C=C/[C@H](Cc1ccccc1)C(=O)N1CCC[C@H]1C(=O)N[C@H](C(=O)N[C@@H](CCCNC(=O)OCc1ccccc1)C(=O)NC1CC(C)(C)N([O])C(C)(C)C1)C(C)C)NC(=O)OC(C)(C)C [Compound 5a]
DNA fragmentation (mouse embryonic cells [2]): prevented DNA fragmentation
caspase-3 activation (mouse embryonic cells [2]): prevented caspase-3 activation
number of annexin V-positive cells (PS externalization) (mouse embryonic cells [2]): reduced the number of annexin V-positive cells
effect at concentrations in excess of 10 μM (mouse embryonic cells [2]): either less protective or exhibited cytotoxicity
intracellular superoxide generation (mouse embryonic cells [3]): completely inhibited
integration into cells and mitochondria (EPR signals of nitroxide radicals) (mouse embryonic cells [4]): triplet signals of nitroxide radicals were detected

COc1ccc2c(c1)c(CC(=O)O)c(C)n2C(=O)c1ccc(Cl)cc1 [Indomethecin]
log Ko/w [5]: 4.23

CC(C)C[C@H](NC(=O)OC(C)(C)C)C(=O)N[C@H](Cc1ccccc1)C(=O)N1CCC[C@H]1C(=O)N[C@H](C(=O)N[C@@H](CCCNC(=O)OCc1ccccc1)C(=O)NC1=NCCC(C)S1)C(C)C (stereo partly drawn) [XJB-5-127, Boc-Leu-^DPhe-Pro-Val-Orn(Cbz)-AMT] (Boc-L[dF]PV[Orn](Cbz)-X1)
Fmole/10 μM mitochondrial protein [1]: 50.8 Fmole/10 μM mitochondrial protein

CC(C)C[C@@H](/C=C/[C@H](Cc1ccccc1)C(=O)N1CCC[C@H]1C(=O)N[C@H](C(=O)N[C@@H](CCCNC(=O)OCc1ccccc1)C(=O)NC1=NCCC(C)S1)C(C)C)NC(=O)OC(C)(C)C (stereo partly drawn) [XJB-5-133, Boc-Leu-ψ[(E)-CH═CH]-^DPhe-Pro-Val-Orn(Cbz)-AMT]
Fmole/10 μM mitochondrial protein [1]: 89.8 Fmole/10 μM mitochondrial protein

CC(=O)N1CCN(c2ccc(OCC3COC(Cn4ccnc4)(c4ccc(Cl)cc4Cl)O3)cc2)CC1 (stereo not drawn) [ketaconazole]
log Ko/w [5]: 4.34

Clc1ccccc1C(c1ccccc1)(c1ccccc1)n1ccnc1 [clotrimazole]
log Ko/w [5]: 6.27

CC(C)C[C@H](NC(=O)OC(C)(C)C)C(=O)N[C@H](Cc1ccccc1)C(=O)N1CCC[C@H]1C(=O)N[C@H](C(=O)N[C@@H](CCCNC(=O)OCc1ccccc1)C(=O)NC1CC(C)(C)N([O])C(C)(C)C1)C(C)C [Compound 5b] (Boc-L[dF]PV[Orn](Cbz)-{NH(TEMPO-4-yl)})
DNA fragmentation (mouse embryonic cells [2]): prevented DNA fragmentation
caspase-3 activation (mouse embryonic cells [2]): prevented caspase-3 activation
number of annexin V-positive cells (PS externalization) (mouse embryonic cells [2]): reduced the number of annexin V-positive cells
effect at concentrations in excess of 10 μM (mouse embryonic cells [2]): either less protective or exhibited cytotoxicity
intracellular superoxide generation (mouse embryonic cells [3]): completely inhibited

CC(C)C[C@@H](/C=C/[C@H](Cc1ccccc1)C(=O)NC1=NCCC(C)S1)NC(=O)OC(C)(C)C (stereo partly drawn) [XJB-5-234, Boc-Leu-ψ[(E)-CH═CH]-^DPhe-AMT]
Fmole/10 μM mitochondrial protein [1]: 1.45 Fmole/10 μM mitochondrial protein

CC1(C)CC(N)CC(C)(C)N1[O] [4-amino-TEMPO, reference compound]
NO induced peroxynitrite formation [6]: comparable amount of peroxynitrite
protection against ActD-induced apoptosis (mouse embryonic cells [2]; low concentrations): afforded no protection
permeation of the mitochondrial membrane (mass spectrometry) [1]: only permeate the mitochondrial membrane with the assistance of the attached GS-derived targeting sequence
intracellular superoxide generation (mouse embryonic cells [3]): no effect
integration into cells and mitochondria (EPR signals of nitroxide radicals) (mouse embryonic cells [4]): did not effectively permeate cells or the mitochondria

CC1CCN=C(N)S1 (stereo not drawn) [unconjugated AMT, 2-amino-6-methyl-thiazine, reference compound]
NO induced peroxynitrite formation [6]: comparable amount of peroxynitrite
permeation of the mitochondrial membrane (mass spectrometry) [1]: do not enter the mitochondria membrane in substantial quantities

CC1(C)CC(O)CC(C)(C)N1[O] [TEMPOL, 4-hydroxy-2,2,6,6-tetramethylpiperidine-N-oxyl]
n (shoulder on the survival curve) [7]: 5.82
Do ([7]; vs 0.797 Gy for 32D cl 3 cells alone): 1.209 Gy
